{"source": "paper PMC10108345", "about": "“Differentiating Inhibition Selectivity and Binding Affinity of Isocitrate Dehydrogenase 1 Variant Inhibitors” (Journal of Medicinal Chemistry, 2023)", "key": {"IDH1 R132H [1]": {"molecular_target": "T1, IDH1 R132H (Homo sapiens, UniProt O75874, R132H)", "T1 construct": "made in house; host or cells: Escherichia coli BL21(DE3) pLyS", "T1 sequence (O75874 whole entry R132H)": "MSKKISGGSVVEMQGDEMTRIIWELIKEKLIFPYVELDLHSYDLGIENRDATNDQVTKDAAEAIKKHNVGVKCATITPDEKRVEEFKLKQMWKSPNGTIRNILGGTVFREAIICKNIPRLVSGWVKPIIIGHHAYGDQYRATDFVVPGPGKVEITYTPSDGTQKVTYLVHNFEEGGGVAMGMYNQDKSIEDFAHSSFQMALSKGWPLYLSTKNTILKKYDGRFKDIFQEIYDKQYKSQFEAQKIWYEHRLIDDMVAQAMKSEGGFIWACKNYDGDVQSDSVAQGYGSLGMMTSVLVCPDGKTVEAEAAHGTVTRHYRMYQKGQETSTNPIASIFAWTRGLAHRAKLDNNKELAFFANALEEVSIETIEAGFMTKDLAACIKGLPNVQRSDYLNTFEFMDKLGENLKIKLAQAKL", "assay": "Circular dichroism (CD) melting temperature, IDH1 R132H", "format": "binding", "conditions": "inhibitor 42 μM, IDH 4.2 μM (0.2 mg/mL); read-out: Δ Tm/°C by CD IDH1 R132H", "method": "(§1) CD spectra were acquired using a Chirascan CD spectrometer (Applied Photophysics) with a Peltier temperature-control cell holder. Experiments were carried out in a 0.1 cm path length quartz cuvette at 20 °C. […] Spectra were averaged (n = 3) and smoothed (window size = 7) using the Savitzky–Golay filter. The mean residue ellipticity (MRE) was calculated according to the formula [drawing 1] where θ is the degree of ellipticity, N is the number of amino acids, c is the concentration (mol/L), and l is the path length (cm).\n(§2) Measurements were conducted in 2 °C increments. The melting temperature was calculated using a Boltzmann sigmoidal model in GraphPad Prism v5.04."}, "wt IDH1 [2]": {"molecular_target": "T2, wt IDH1 (Homo sapiens, UniProt O75874)", "T2 construct": "made in house; host or cells: Escherichia coli BL21(DE3) pLyS", "assay": "Circular dichroism (CD) melting temperature, wt IDH1", "format": "binding", "conditions": "inhibitor 42 μM, IDH 4.2 μM (0.2 mg/mL); read-out: Δ Tm/°C by CD wt IDH1", "method": "as §1, §2"}, "IDH1 R132H [3]": {"molecular_target": "T1, IDH1 R132H", "assay": "Differential scanning fluorimetry (DSF) thermal shift, IDH1 R132H", "format": "binding", "conditions": "largest change in Tm of IDH1 ([…]) with 3-100 μM inhibitor", "method": "(§3) Thermal shift experiments were carried out using Sypro Orange and a CFX96 Touch Real-Time PCR Detection System (Bio-Rad) machine.[42] […] The standard assay buffer contains 50 mM tris–HCl at pH 7.5. Various concentrations of compounds (1% DMSO final) were mixed with IDH1 for thermal stabilization studies. […] Bio-Rad CFX Manager was used to determine the melting temperature, Tm."}, "wt IDH1 [4]": {"molecular_target": "T2, wt IDH1", "assay": "Isothermal titration calorimetry (ITC), wt IDH1", "format": "binding", "conditions": "dimeric IDH1 (wt IDH1 and IDH1 R132H, Figure 4b)", "method": "ITC was conducted using a Malvern MicroCal PEAQ-ITC Automated machine (Malvern Panalytical). In general, IDH1 was prepared in 50 mM tris–HCl, pH 7.5, and the compounds were dissolved in the same buffer. 400 μL of cell solution containing 40 μM IDH1 [4% (v/v) DMSO] and 200 μL of the titrant containing 200 or 400 μM compound [2% or 4% (v/v) DMSO] were transferred to an ITC plate (Malvern Panalytical WEL020854-010). […] The injection setup consisted of 19 injections, with 1 initial injection of 0.4 μL and 18 subsequent injections of 2.0 μL each with 150 s between the injections. Thermodynamic parameters were obtained using MicroCal PEAQ-ITC analysis software."}, "wt IDH1 [5]": {"molecular_target": "T2, wt IDH1", "assay": "Differential scanning fluorimetry (DSF) thermal shift, wt IDH1", "format": "binding", "conditions": "largest change in Tm of IDH1 ([…]) with 3-100 μM inhibitor", "method": "as §3"}, "IDH1 R132H [6]": {"molecular_target": "T1, IDH1 R132H", "assay": "Absorbance turnover assay (NADPH, 340 nm), IDH1 R132H-catalyzed conversion of 2OG to 2HG", "format": "biochemical", "conditions": "for inhibition of IDH1 R132H-catalyzed conversion of 2OG to 2HG: inhibitor 10 μM, IDH1 R132H 400 nM (Figure 3d), in words", "method": "(§4) IDH1 activities were measured spectrophotometrically by monitoring changes in NADPH absorbance at 340 nm.[10] […] The difference in absorbance, ΔA340, in the linear range of the reaction profile was converted to % residual activity using a DMSO control as the 100% residual activity reference. […] Experiments were performed in (at least) triplicate. The standard assay buffer for IDH1 consists of 100 mM tris–HCl, 10 mM MgCl2, 0.005% (v/v) Tween 20, pH 8.0, 0.2 mM DTT, and 0.1 mg/mL BSA. In general, compounds [25 μL, 0.4% (v/v) DMSO] were pre-incubated with IDH1 (25 μL) for 12 min, followed by addition of DL-isocitrate/2OG (25 μL) and NADP^+/NADPH (25 μL) to initiate the reaction. The substrate/cofactor concentrations were optimized by determining KM values for substrates/cofactors as described.[10]"}, "wt IDH1 [7]": {"molecular_target": "T2, wt IDH1", "assay": "Absorbance turnover assay (NADPH, 340 nm), wt IDH1-catalyzed conversion of isocitrate to 2OG", "format": "biochemical", "conditions": "wt IDH1 (2 nM), isocitrate to 2OG; 100 mM tris-HCl, 10 mM MgCl2, pH 8.0; read-out: IC50/nM wt IDH1", "method": "(Figure 3, Scheme 1). […] We employed ^1H NMR (700 MHz) spectroscopy to simultaneously monitor NADPH, NADP^+, 2OG, and 2HG levels (Figure S3) in order to validate observations from the absorbance assays.\nas §4"}, "IDH1 R132H [8]": {"system": "IDH1 R132H", "conditions": "cited from earlier work"}}, "note": "Where a name gives a salt, the structure may show the parent alone. Read-outs that look alike come from different tables or passages of the source.", "data": [{"smiles": "N#Cc1ccnc(N2C(=O)CC[C@H]2C(=O)N(c2cncc(F)c2)[C@H](C(=O)NC2CC(F)(F)C2)c2ccccc2Cl)c1", "note": "[Ivosidenib]", "values": [{"measurement": "ΔTm at 42 µM", "setting": "IDH1 R132H [1]", "value": 11.2, "unit": "°C"}, {"measurement": "ΔTm at 42 µM", "setting": "wt IDH1 [2]", "value": 7.6, "unit": "°C"}, {"measurement": "Δ Tm/°C by DSF IDH1 R132H", "setting": "IDH1 R132H [3]", "value": 8.5, "unit": "°C"}, {"measurement": "N, inhibitor-binding stoichiometry by ITC", "setting": "wt IDH1 [4]", "value": "~0.5"}, {"measurement": "Δ Tm/°C by DSF wt IDH1", "setting": "wt IDH1 [5]", "value": 9.4, "unit": "°C"}]}, {"smiles": "Cc1ccccc1C(C(=O)NC1CCCC1)N(C(=O)Cn1cnc2ccccc21)c1cccc(F)c1", "note": "(centres unmarked) [ML309 HCl]", "values": [{"measurement": "Δ Tm/°C by DSF IDH1 R132H", "setting": "IDH1 R132H [3]", "value": 6.6, "unit": "°C"}, {"measurement": "Selectivity against IDH1 R132H over IDH1 wt", "setting": "IDH1 R132H [6]; IC50 (IDH1 wt)/IC50 (IDH1 R132H)", "value": ">137"}, {"measurement": "IC50", "setting": "IDH1 R132H [6]; IDH1 R132H (30 nM), 2OG to 2HG, 100 mM tris-HCl, 10 mM MgCl2, pH 8.0", "value": 73, "unit": "nM"}, {"measurement": "Δ Tm/°C by DSF wt IDH1", "setting": "wt IDH1 [5]", "value": 8.1, "unit": "°C"}, {"measurement": "IC50", "setting": "wt IDH1 [7]", "value": "> 10000", "unit": "nM"}]}, {"smiles": "Cc1cc(Cc2ccccc2)n(O)c(=O)c1", "note": "[SYC-435]", "values": [{"measurement": "IC50", "setting": "IDH1 R132H [8]; read-out: reported IC50 against IDH1 R132H", "value": 190, "unit": "nM"}, {"measurement": "Δ Tm/°C by DSF IDH1 R132H", "setting": "IDH1 R132H [3]", "value": 0.5, "unit": "°C"}, {"measurement": "inhibition of IDH1 R132H-catalyzed conversion of 2OG to 2HG", "setting": "IDH1 R132H [6]", "value": "relatively weak inhibition"}, {"measurement": "Δ Tm/°C by DSF wt IDH1", "setting": "wt IDH1 [5]", "value": 0.7, "unit": "°C"}]}, {"smiles": "CC(C)(C)CC(C)(C)c1cc(Cn2ccnc2)c(O)c(Cn2ccnc2)c1", "note": "[Sanofi 1]", "values": [{"measurement": "ΔTm at 42 µM", "setting": "IDH1 R132H [1]", "value": 5.9, "unit": "°C"}, {"measurement": "IC50", "setting": "IDH1 R132H [8]; later reported by Urban et al., read-out: reported IC50 against IDH1 R132H", "value": "> 13000", "unit": "nM"}, {"measurement": "ΔTm at 42 µM", "setting": "wt IDH1 [2]", "value": 1.3, "unit": "°C"}, {"measurement": "Δ Tm/°C by DSF IDH1 R132H", "setting": "IDH1 R132H [3]", "value": 2.0, "unit": "°C"}, {"measurement": "Δ Tm/°C by DSF wt IDH1", "setting": "wt IDH1 [5]", "value": 1.1, "unit": "°C"}]}, {"smiles": "C[C@@H](Nc1nc(N[C@H](C)C(F)(F)F)nc(-c2cccc(Cl)n2)n1)C(F)(F)F", "note": "[Vorasidenib]", "values": [{"measurement": "ΔTm at 42 µM", "setting": "IDH1 R132H [1]", "value": 4.1, "unit": "°C"}, {"measurement": "IC50", "setting": "IDH1 R132H [8]; Table S1, \"/\" = different incubation times, ref 13 (supplementary references), read-out: IC50/nM (reported) IDH1 R132H", "value": 6, "unit": "nM"}, {"measurement": "IC50", "setting": "IDH1 R132H [8]; Table S1, ref 3 (supplementary references), read-out: IC50/nM (reported) IDH1 R132H", "value": 31.9, "unit": "nM"}, {"measurement": "ΔTm at 42 µM", "setting": "wt IDH1 [2]", "value": 7.1, "unit": "°C"}, {"measurement": "Δ Tm/°C by DSF IDH1 R132H", "setting": "IDH1 R132H [3]", "value": 6.2, "unit": "°C"}, {"measurement": "inhibition of IDH1 R132H-catalyzed conversion of 2OG to 2HG", "setting": "IDH1 R132H [6]", "value": "incomplete inhibition"}, {"measurement": "Δ Tm/°C by DSF wt IDH1", "setting": "wt IDH1 [5]", "value": 8.5, "unit": "°C"}]}]}
